Target: T1, PARP1 (Homo sapiens, UniProt P09874)
T1 construct: HeLa cells (wide-type with PARP1 gene) were purchased from ATCC; host or cells: HeLa (wild type)
Test: In-Cell Western measurement of PARylation in PARP1 WT and knockout cells
Assay type: cell-based
Details: HeLa cells (wide-type with PARP1 gene); hydrogen peroxide-induced PARylation; compounds 30 min, then 10 mM hydrogen peroxide 15 min; read-out: HeLa_WT_IC50
Source text: The purpose of this cell-based assay is to measure the potency and selectivity of synthesized PARP inhibitors in suppressing hydrogen peroxide-induced PARylation in cells with and without PARP1 expression. Several cell lines were used in this assay. The human PARP1 knockout HEK-293T cell line (#ab266598) was purchased from Abcam, and its corresponding wide-type control is the human wild-type HEK-293T cell line (#ab255449). The HAP1 isogenic cell lines with and without the PARP1 gene (#HZGHC003943c006) were purchased from Horizon Discovery. HeLa cells (wide-type with PARP1 gene) were purchased from ATCC. Cells were cultured using complete medium containing 10% fetal bovine serum. One day before the assay, cells were seeded in 96-well plates at the density of 20,000 cells per well in 100 uL complete medium. Compounds were dissolved using DMSO and diluted to the working concentrations using complete medium. Cells were pre-treated with compounds for 30 min and then stimulated with 10 mM hydrogen peroxide for 15 min. After stimulation, cells were immediately fixed using ice-cold methanol for 20 min. After fixation, cells were washed using 1×PBST buffer for 3 times, 5 min each time, to eliminate residual methanol. Cells were blocked for 2 h at room temperature in blocking buffer (LI-COR Biosciences, #927-70001). Primary antibody was diluted in diluent buffer (LI-COR Biosciences, #927-75001, 1:200) at 50 uL per well. Cells were incubated with the primary antibody at 4° C. for 18 h. The wells were then washed using 1×PBST for 3 times, 5 min each time. IRDye® 680RD Goat anti-Mouse IgG (H+L) secondary antibody was diluted at 1/2000 using the diluent buffer and added at 100 μL per well. Secondary antibody incubation was for 1 h at room temperature. Cells were then washed using 1×PBST for 3 times, 5 min each time. The signal was detected and analyzed using LI-COR Odyssey DLx Imaging system. Data were collected and further processed using GraphPad Prism for IC50 estimation.

T1 sequence (P09874 whole entry): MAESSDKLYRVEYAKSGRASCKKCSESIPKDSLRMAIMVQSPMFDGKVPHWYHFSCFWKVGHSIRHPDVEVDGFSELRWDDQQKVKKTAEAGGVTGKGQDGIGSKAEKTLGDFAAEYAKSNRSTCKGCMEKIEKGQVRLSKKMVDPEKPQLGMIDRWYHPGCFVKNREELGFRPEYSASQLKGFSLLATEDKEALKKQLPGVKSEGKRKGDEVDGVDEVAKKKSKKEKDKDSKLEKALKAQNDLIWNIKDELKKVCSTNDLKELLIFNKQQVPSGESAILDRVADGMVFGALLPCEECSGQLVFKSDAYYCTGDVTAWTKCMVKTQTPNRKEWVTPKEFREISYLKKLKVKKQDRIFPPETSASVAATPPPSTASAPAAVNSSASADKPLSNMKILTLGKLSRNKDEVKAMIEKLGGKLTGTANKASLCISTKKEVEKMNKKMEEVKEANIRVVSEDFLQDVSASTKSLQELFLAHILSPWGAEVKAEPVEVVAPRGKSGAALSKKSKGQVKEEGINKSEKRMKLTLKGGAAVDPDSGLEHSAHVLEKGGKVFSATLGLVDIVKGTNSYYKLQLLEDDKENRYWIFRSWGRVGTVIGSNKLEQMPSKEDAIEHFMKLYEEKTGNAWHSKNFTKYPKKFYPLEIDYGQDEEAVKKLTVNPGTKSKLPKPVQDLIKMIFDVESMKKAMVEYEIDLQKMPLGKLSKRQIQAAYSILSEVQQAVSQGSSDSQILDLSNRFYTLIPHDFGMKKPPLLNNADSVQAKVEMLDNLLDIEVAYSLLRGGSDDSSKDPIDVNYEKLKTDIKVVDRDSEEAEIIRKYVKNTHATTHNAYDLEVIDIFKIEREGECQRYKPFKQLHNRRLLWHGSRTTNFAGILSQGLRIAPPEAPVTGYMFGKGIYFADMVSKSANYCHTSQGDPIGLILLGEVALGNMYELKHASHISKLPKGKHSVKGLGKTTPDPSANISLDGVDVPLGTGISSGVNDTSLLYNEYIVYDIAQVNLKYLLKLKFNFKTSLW

IC50	Compound
≤ 10 nM	CCn1c(=O)[nH]c2cc(CN3CCN(c4ccc(C(=O)NC)nc4F)CC3)ccc2c1=O [Compound I-29, 5-(4-((3-Ethyl-2,4-dioxo-1,2,3,4-tetrahydroquinazolin-7-yl)methyl)piperazin-1-yl)-6-fluoro-N-methylpicolinamide]
≤ 10 nM	CNC(=O)c1ccc(N2CCN(Cc3cc4[nH]c(=O)c5c(c4cn3)CCC5)CC2)c(C)n1 [Compound I-30, N,6-dimethyl-5-(4-((6-oxo-6,7,8,9-tetrahydro-5H-cyclopenta[c][1,6]naphthyridin-3-yl)methyl)piperazin-1-yl)picolinamide]
≤ 10 nM	CCn1c(=O)[nH]c2cc(CN3CCN(c4ccc(C(=O)NC)nc4C(F)(F)F)CC3)ccc2c1=O [Compound I-31, 5-(4-((3-Ethyl-2,4-dioxo-1,2,3,4-tetrahydroquinazolin-7-yl)methyl)piperazin-1-yl)-N-methyl-6-(trifluoromethyl)picolinamide]
≤ 10 nM	CCn1c(=O)[nH]c2cc(CN3CCN(c4ccc(C(=O)NC)nc4C)CC3)cc(Cl)c2c1=O [Compound I-32, 5-(4-((5-chloro-3-ethyl-2,4-dioxo-1,2,3,4-tetrahydroquinazolin-7-yl)methyl)piperazin-1-yl)-N,6-dimethylpicolinamide]
≤ 10 nM	CCn1c(=O)[nH]c2cc(CN3CCN(c4ccc(C(=O)NC)nc4F)CC3)cc(F)c2c1=O [Compound I-33, 5-(4-((3-Ethyl-5-fluoro-2,4-dioxo-1,2,3,4-tetrahydroquinazolin-7-yl)methyl)piperazin-1-yl)-6-fluoro-N-methylpicolinamide]
≤ 10 nM	CCN1C(=O)Nc2c(F)c(CN3CCN(c4ccc(C(=O)NC)nc4C)CC3)cc3c2c1nn3C [Compound I-34, 5-(4-((3-Ethyl-6-fluoro-1-methyl-4-oxo-1,3,4,5-tetrahydropyrazolo[3,4,5-de]quinazolin-7-yl)methyl)piperazin-1-yl)-N,6-dimethylpicolinamide]
≤ 10 nM	CCN1C(=O)Nc2c(F)c(CN3CCN(c4ccc(C(=O)NC)nc4C)CC3)cc3ncnc1c23 [Compound I-35, 5-(4-((3-ethyl-9-fluoro-2-oxo-2,3-dihydro-1H-pyrimido[4,5,6-de]quinazolin-8-yl)methyl)piperazin-1-yl)-N,6-dimethylpicolinamide]
≤ 10 nM	[2H]C([2H])([2H])NC(=O)c1ccc(N2CCN(Cc3cc(F)c4c(=O)n(CC)c(=O)[nH]c4c3)CC2)c(C([2H])([2H])[2H])n1 [Compound I-36, 5-(4-((3-Ethyl-5-fluoro-2,4-dioxo-1,2,3,4-tetrahydroquinazolin-7-yl)methyl)piperazin-1-yl)-N,6-bis(methyl-d3)picolinamide]
≤ 10 nM	CCn1c(=O)[nH]c2cc(CN3CCN(c4ccc(C(=O)NC)nc4C)CC3)cc(C(F)F)c2c1=O [Compound I-37, 5-(4-((5-(Difluoromethyl)-3-ethyl-2,4-dioxo-1,2,3,4-tetrahydroquinazolin-7-yl)methyl)piperazin-1-yl)-N,6-dimethylpicolinamide]
≤ 10 nM	CNC(=O)c1ccc(N2CCN(Cc3cc(OC)c4c(=O)n(C)c(=O)[nH]c4c3F)CC2)c(C)n1 [Compound I-38, 5-(4-((8-Fluoro-5-methoxy-3-methyl-2,4-dioxo-1,2,3,4-tetrahydroquinazolin-7-yl)methyl)piperazin-1-yl)-N,6-dimethylpicolinamide]
≤ 10 nM	CCn1c(=O)[nH]c2c(F)c(CN3CCN(c4ccc(C(=O)NC)nc4C)CC3)cc(Cl)c2c1=O [Compound I-39, 5-(4-((5-chloro-3-ethyl-8-fluoro-2,4-dioxo-1,2,3,4-tetrahydroquinazolin-7-yl)methyl)piperazin-1-yl)-N,6-dimethylpicolinamide]
≤ 10 nM	CCn1c(=O)[nH]c2c(F)c(CN3CCN(c4ccc(C(=O)NC)nc4C)CC3)cc(C3CC3)c2c1=O [Compound I-40, 5-(4-((5-Cyclopropyl-3-ethyl-8-fluoro-2,4-dioxo-1,2,3,4-tetrahydroquinazolin-7-yl)methyl)piperazin-1-yl)-N,6-dimethylpicolinamide]
≤ 10 nM	CCn1c(=O)[nH]c2c(F)c(CN3CCN(c4ccc(C(=O)NC)nc4C)CC3)cc(CO)c2c1=O [Compound I-41, 5-(4-((3-Ethyl-8-fluoro-5-(hydroxymethyl)-2,4-dioxo-1,2,3,4-tetrahydroquinazolin-7-yl)methyl)piperazin-1-yl)-N,6-dimethylpicolinamide]
≤ 10 nM	CCn1c(=O)[nH]c2c(F)c(CN3CCN(c4ccc(C(=O)NC)nc4C)CC3)cc(CC#N)c2c1=O [Compound I-42, 5-(4-((5-(Cyanomethyl)-3-ethyl-8-fluoro-2,4-dioxo-1,2,3,4-tetrahydroquinazolin-7-yl)methyl)piperazin-1-yl)-N,6-dimethylpicolinamide]
≤ 10 nM	CCNC(=O)c1ccc(N2CCN(Cc3cc(Cl)c4c(=O)n(C)c(=O)[nH]c4c3)CC2)c(C)n1 [Compound I-43, 5-(4-((5-Chloro-3-methyl-2,4-dioxo-1,2,3,4-tetrahydroquinazolin-7-yl)methyl)piperazin-1-yl)-N-ethyl-6-methylpicolinamide]
≤ 10 nM	[2H]C([2H])([2H])NC(=O)c1ccc(N2CCN(Cc3ccc4c(=O)n(CC)c(=O)[nH]c4c3)CC2)c(C([2H])([2H])[2H])n1 [Compound I-44, 5-(4-((3-ethyl-2,4-dioxo-1,2,3,4-tetrahydroquinazolin-7-yl)methyl)piperazin-1-yl)-N,6-bis(methyl-d3)picolinamide]
≤ 10 nM	CCN1C(=O)Nc2cc(CN3CCN(c4ccc(C(=O)NC)nc4C)CC3)cc3cnnc1c23 [Compound I-45, 5-[4-[(12-Ethyl-11-oxo-2,3,10,12-tetrazatricyclo[7.3.1.05,13]trideca-1,3,5,7,9 (13)-pentaen-7-yl)methyl]piperazin-1-yl]-N,6-dimethyl-pyridine-2-carboxamide]
≤ 10 nM	CCn1c(=O)[nH]c2c(F)c(CN3CCN(c4ccc(C(=O)NC)nc4C)CC3)cc(COC)c2c1=O [Compound I-46, 5-(4-((3-Ethyl-8-fluoro-5-(methoxymethyl)-2,4-dioxo-1,2,3,4-tetrahydroquinazolin-7-yl)methyl)piperazin-1-yl)-N,6-dimethylpicolinamide]
≤ 10 nM	CNC(=O)c1ccc(N2CCN(Cc3cc(C(F)F)c4c(=O)n(C)c(=O)[nH]c4c3)CC2)c(C)n1 [Compound I-47, 5-(4-((5-(Difluoromethyl)-3-methyl-2,4-dioxo-1,2,3,4-tetrahydroquinazolin-7-yl)methyl)piperazin-1-yl)-N,6-dimethylpicolinamide]
≤ 10 nM	CCNC(=O)c1ccc(N2CCN(Cc3cc(Cl)c4c(=O)n(CC)c(=O)[nH]c4c3)CC2)c(C)n1 [Compound I-48, 5-(4-((5-chloro-3-ethyl-2,4-dioxo-1,2,3,4-tetrahydroquinazolin-7-yl)methyl)piperazin-1-yl)-N-ethyl-6-methylpicolinamide]
≤ 10 nM	CNC(=O)c1ccc(N2CCN(Cc3cc(C4CC4)c4c(=O)n(C)c(=O)[nH]c4c3F)CC2)c(C)n1 [Compound I-49, 5-(4-((5-Cyclopropyl-8-fluoro-3-methyl-2,4-dioxo-1,2,3,4-tetrahydroquinazolin-7-yl)methyl)piperazin-1-yl)-N,6-dimethylpicolinamide]
≤ 10 nM	CCN1C(=O)Nc2c(F)c(CN3CCN(c4ccc(C(=O)NC)nc4C)CC3)cc3nc(OC)nc1c23 [Compound I-50, 5-(4-((3-Ethyl-9-fluoro-5-methoxy-2-oxo-2,3-dihydro-1H-pyrimido[4,5,6-de]quinazolin-8-yl)methyl)piperazin-1-yl)-N,6-dimethylpicolinamide]
10 to 100 nM	CCN1C(=O)Nc2c(F)c(CN3CCN(c4ccc(C(=O)NC)nc4C)CC3)cc3c2c1nc(=O)n3C [Compound I-51, 5-(4-((3-Ethyl-9-fluoro-6-methyl-2,5-dioxo-2,3,5,6-tetrahydro-1H-pyrimido[4,5,6-de]quinazolin-8-yl)methyl)piperazin-1-yl)-N,6-dimethylpicolinamide]
≤ 10 nM	CCN1C(=O)Nc2c(F)c(CN3CCN(c4ccc(C(=O)NC)nc4C)CC3)cc3nc(C)nc1c23 [Compound I-52, 5-(4-((3-Ethyl-9-fluoro-5-methyl-2-oxo-2,3-dihydro-1H-pyrimido[4,5,6-de]quinazolin-8-yl)methyl)piperazin-1-yl)-N,6-dimethylpicolinamide]
≤ 10 nM	CCN1C(=O)Nc2c(F)c(CN3CCN(c4ccc(C(=O)NC)nc4C)CC3)cc3c(C)nnc1c23 [Compound I-54, 5-(4-((9-Ethyl-6-fluoro-3-methyl-8-oxo-8,9-dihydro-7H-pyridazino[3,4,5-de]quinazolin-5-yl)methyl)piperazin-1-yl)-N,6-dimethylpicolinamide]
